Earlier results on one molecule are cited in US20200138845A1, “Combination Drug Therapy” (ViiV Healthcare Company, priority 2017, published 2020).

The data set has as its system HIV-1 strains. The note with it: antiviral activity against a broad range of HIV-1 strains.

As for `C[C@H]1CO[C@@H]2Cn3cc(C(=O)NCc4ccc(F)cc4F)c(=O)c(O)c3C(=O)N12` [Cabotegravir, cabotegravir], the potency entry was “subnanomolar”.
